We go through 12 molecules from ChEMBL document CHEMBL1201862, “PubChem BioAssay data set” (2004).

The structures appear in SMILES notation.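 The compound was tested at five concentrations on cells cultured in 96-well plates, with a 48-hour exposure period. The concentration for 50% growth inhibition is given as GI50.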 Active and inactive are the calls of the source. Cut-off read from the data, not from the text of the source: active = GI50 up to about 1.1 µM and inactive = higher.

Test systems include LOX IMVI; SN12C; HCT-15; U-251; KM-20L2; HCC 2998; OVCAR-5; HCT-116; COLO 205; SK-MEL-28; SF-268; MOLT-4; 786-0; HT-29; CCRF-CEM; UACC-62; TK-10; OVCAR-3; Hs-578T; MDA-MB-231.
What all share (assay): NCI tumour cell line growth inhibition, 48 h

Turning to `CCN(CC)c1ccc(C(=C2C=CC(=[N+](CC)CC)C=C2)c2ccccc2)cc1`, the GI50 was 0.0219 µM (active) with LOX IMVI; 0.0254 µM (active) in the assay on SN12C; 0.0483 µM in the assay on HCT-15; 0.0234 µM (active) with U-251; 0.0302 µM (active) in the assay on KM-20L2; 0.0351 µM (active) in the assay with HCC 2998. Further, the GI50 in the assay on OVCAR-5 is 0.134 µM (active); in the assay with HCT-116 it was 0.0324 µM (active); in the assay with COLO 205, 0.0307 µM (active); with SK-MEL-28, 0.0537 µM (active); in the assay with SF-268, 0.0366 µM (active); with MOLT-4, 0.0151 µM (active). For the same molecule, the GI50 with 786-0 is 0.0352 µM (active); in the assay on HT-29, < 0.01 µM (active); in the assay with CCRF-CEM, 0.0121 µM (active); with UACC-62, 0.0451 µM (active).
Consider `CC(C)N(O)C(=N)c1ccccc1`, for which the GI50 in the assay with LOX IMVI, with SN12C, in the assay with U-251, in the assay with KM-20L2, in the assay on HCC 2998 and with OVCAR-5 was > 100 µM (inactive) in each case. Moreover, the GI50 in the assay on HCT-116 was > 100 µM (inactive); in the assay with SK-MEL-28 it was > 100 µM (inactive); in the assay on SF-268, > 100 µM (inactive); in the assay on 786-0, 54.7 µM (inactive); in the assay with HT-29, > 100 µM (inactive); in the assay on TK-10, > 100 µM (inactive).
Take `Cc1cc(N(CCC#N)S(C)(=O)=O)ccc1C=O`: the GI50 in the assay with LOX IMVI is > 100 µM (inactive); in the assay with SN12C, > 100 µM (inactive); in the assay with HCT-15, greater than 100 µM; with U-251, > 100 µM (inactive); with KM-20L2 it was > 100 µM (inactive); in the assay with HCC 2998 it was > 100 µM (inactive). Besides, the GI50 with OVCAR-5, with HCT-116, with COLO 205, with SK-MEL-28, in the assay with SF-268 and in the assay on OVCAR-3 was > 100 µM (inactive) in each case. In addition, the GI50 in the assay on MOLT-4, in the assay on 786-0, with HT-29, with CCRF-CEM and in the assay with UACC-62 was > 100 µM (inactive) in each case.
Consider `O=P(c1ccccc1)(c1ccccc1)C1CC=C2CCCCCC2C1` (configuration not stated), for which the GI50 is 26.1 µM (inactive) in the assay with LOX IMVI; 30.6 µM (inactive) in the assay with SN12C; 37.2 µM in the assay on HCT-15; 67 µM (inactive) in the assay on U-251; > 10 µM (inactive) in the assay on KM-20L2; 23.2 µM (inactive) in the assay with OVCAR-5. Also, the GI50 in the assay on HCT-116 is 19.6 µM (inactive); with COLO 205 it was 24.1 µM (inactive); with SK-MEL-28, > 10 µM (inactive); with SF-268, 23.3 µM (inactive); in the assay with OVCAR-3, 23.8 µM (inactive); in the assay on MOLT-4, 18.8 µM (inactive). For the same molecule, the GI50 with 786-0 is 22.6 µM (inactive); with HT-29 it was 37.2 µM (inactive); with CCRF-CEM it was 23.6 µM (inactive); in the assay on UACC-62 it was 23.9 µM (inactive); in the assay on TK-10 it was 58.7 µM (inactive).
`CCC(=O)Nc1nc2c(ncn2C2OC(COC(=O)CC)C(OC(=O)CC)C2OC(=O)CC)c(=O)[nH]1` (configuration not stated): the GI50 with LOX IMVI was > 100 µM (inactive); in the assay on SN12C, > 100 µM (inactive); in the assay with HCT-15 it was greater than 100 µM; in the assay with U-251, > 100 µM (inactive); in the assay with KM-20L2, > 100 µM (inactive); with HCC 2998, > 100 µM (inactive). For the same molecule, the GI50 in the assay on OVCAR-5, in the assay on HCT-116, in the assay with SK-MEL-28, with SF-268, with OVCAR-3 and with MOLT-4 was > 100 µM (inactive) throughout. Further, the GI50 in the assay with 786-0, in the assay on HT-29 and in the assay on UACC-62 was > 100 µM (inactive) each time.
For `O=C1c2ccccc2C(=O)c2c1oc(=O)c1ccccc21`, the GI50 is 3.65 µM (inactive) with LOX IMVI; 3.49 µM (inactive) in the assay with SN12C; 3.26 µM in the assay on HCT-15; 2.96 µM (inactive) with U-251; 6.43 µM (inactive) with Hs-578T; 3.21 µM (inactive) in the assay on HCC 2998. Further, the GI50 in the assay on OVCAR-5 was 6.03 µM (inactive); in the assay on HCT-116, 1.03 µM (active); with COLO 205, 9.71 µM (inactive); with SK-MEL-28 it was 6.5 µM (inactive); with SF-268, 4.34 µM (inactive); in the assay on MDA-MB-231, 3.74 µM (inactive). Moreover, the GI50 was 0.698 µM (active) in the assay on OVCAR-3; 3.79 µM (inactive) in the assay on MOLT-4; 5.35 µM (inactive) in the assay with 786-0; 1.4 µM (inactive) in the assay on HT-29; 1.93 µM (inactive) with CCRF-CEM; 4 µM (inactive) with UACC-62. Moreover, in the assay with TK-10, the GI50 was 8.89 µM (inactive).
On to `O=c1c2cc(Br)ccc2[nH]c(=S)n1-c1ccc(Br)cc1`, for which the GI50 with LOX IMVI is 70.6 µM (inactive); in the assay with SN12C, 75 µM (inactive); with HCT-15, greater than 100 µM; in the assay with U-251, 47.3 µM (inactive); in the assay on KM-20L2 it was > 100 µM (inactive); in the assay with HCC 2998 it was > 100 µM (inactive). The GI50 was 89.7 µM (inactive) in the assay with HCT-116; > 100 µM (inactive) in the assay on COLO 205; > 100 µM (inactive) in the assay on SK-MEL-28; > 100 µM (inactive) with SF-268; 52.4 µM (inactive) in the assay on OVCAR-3; > 100 µM (inactive) in the assay with MOLT-4. Besides, the GI50 was 40.6 µM (inactive) with 786-0, > 100 µM (inactive) with HT-29 and > 100 µM (inactive) with TK-10.
`COC(=O)C(=O)C(C#N)c1ccc(CC#N)cc1` (configuration not stated): the GI50 in the assay with LOX IMVI was > 100 µM (inactive); in the assay with SN12C it was > 100 µM (inactive); with HCT-15, greater than 100 µM; in the assay with U-251, > 100 µM (inactive); in the assay with KM-20L2 it was > 100 µM (inactive); with HCT-116 it was > 100 µM (inactive). Also, the GI50 in the assay with SK-MEL-28, with SF-268, in the assay with OVCAR-3, in the assay with MOLT-4, in the assay on 786-0 and with HT-29 was > 100 µM (inactive) in each case. The GI50 in the assay with CCRF-CEM, with UACC-62 and with TK-10 was > 100 µM (inactive) in each case.
On to `CC(=O)OCC1OC(n2cnc(C(N)=S)c2N)C(OC(C)=O)C1OC(C)=O` (configuration not stated), for which the GI50 is > 100 µM (inactive) in the assay with LOX IMVI; > 100 µM (inactive) in the assay on SN12C; greater than 100 µM with HCT-15; > 100 µM (inactive) with U-251; > 100 µM (inactive) in the assay with Hs-578T; > 100 µM (inactive) with HCC 2998. The GI50 with OVCAR-5, in the assay on HCT-116, with COLO 205, in the assay on SK-MEL-28, with SF-268 and in the assay with MDA-MB-231 was > 100 µM (inactive) in each case. Also, the GI50 in the assay on OVCAR-3, with MOLT-4, in the assay on 786-0, with HT-29, in the assay with CCRF-CEM and in the assay with UACC-62 was > 100 µM (inactive) in each case. The GI50 in the assay with TK-10 was > 100 µM (inactive).
Turning to `c1cc(-c2cn[nH]c2)cc(-c2cn[nH]c2)c1`, the GI50 in the assay on LOX IMVI was 36.8 µM (inactive); with SN12C, 39.4 µM (inactive); in the assay with HCT-15, 28.4 µM; in the assay with U-251, 46.8 µM (inactive); in the assay with KM-20L2, 33 µM (inactive); in the assay on HCC 2998, 88.9 µM (inactive). The GI50 is 20.2 µM (inactive) with HCT-116; 53.3 µM (inactive) in the assay on COLO 205; 35.9 µM (inactive) in the assay with SK-MEL-28; 25.8 µM (inactive) in the assay with SF-268; 33.5 µM (inactive) in the assay with OVCAR-3; 33.1 µM (inactive) in the assay on MOLT-4. Also, the GI50 in the assay with 786-0 was 37.3 µM (inactive); with CCRF-CEM, 29.4 µM (inactive); in the assay on UACC-62, 11.6 µM (inactive); in the assay on TK-10 it was 16.7 µM (inactive).
With `C[C@@]12CCC(=O)c3coc(c31)C(=O)c1cc3c(cc12)C(=O)C=CC3=O` [HELENAQUINONE], the GI50 was 8.59 µM (inactive) in the assay with LOX IMVI; 16.6 µM (inactive) with SN12C; 17.3 µM in the assay on HCT-15; 23.7 µM (inactive) in the assay on U-251; > 86.5 µM (inactive) in the assay on KM-20L2; > 71.3 µM (inactive) in the assay with HCC 2998. For the same molecule, the GI50 in the assay with OVCAR-5 was 20 µM (inactive); with HCT-116, 15.4 µM (inactive); with COLO 205, 16 µM (inactive); with SK-MEL-28, 16.3 µM (inactive); in the assay on SF-268, 18.8 µM (inactive); in the assay with OVCAR-3, 18.7 µM (inactive). The GI50 with MOLT-4 was 14.3 µM (inactive); with 786-0, 17.2 µM (inactive); in the assay with HT-29, 19.7 µM (inactive); in the assay on UACC-62, 15.5 µM (inactive); with TK-10 it was 31 µM (inactive).
For the molecule `O=c1ccc2[n+]([O-])c3ccc(O)cc3oc-2c1` [RESAZURIN], the GI50 was 3.44 µM (inactive) in the assay with LOX IMVI; 18.2 µM (inactive) with SN12C; 5.15 µM with HCT-15; 9.68 µM (inactive) in the assay on U-251; 7.53 µM (inactive) with Hs-578T; 34.6 µM (inactive) in the assay on HCC 2998. Further, the GI50 was 23.6 µM (inactive) with OVCAR-5; 16.7 µM (inactive) with HCT-116; 12.9 µM (inactive) with COLO 205; 10.2 µM (inactive) in the assay with SK-MEL-28; 19.2 µM (inactive) with SF-268; 29.6 µM (inactive) with MDA-MB-231. The GI50 with OVCAR-3 is 13.2 µM (inactive); with MOLT-4, 13.7 µM (inactive); in the assay with 786-0 it was 12.5 µM (inactive); in the assay with HT-29, 19.6 µM (inactive); with CCRF-CEM it was 30 µM (inactive); with UACC-62 it was 2.59 µM (inactive). In addition, in the assay with TK-10, the GI50 is 36 µM (inactive).
